Measured values published in patent US10260108B2, “PARP genomic variants conferring resistance and sensitization to chemotherapy under inhibition” (University of Pittsburgh—Of the Commonwealth System of …, priority 2014, dated 2019).
pIC50: −log10 of the molar value.

How the values were obtained:
[1] = system: A2780; assay: MTT cell proliferation assay, MMS alone or with ABT-888; type: cell-based; conditions: Homo sapiens, A2780 ovarian, PARP1/SNP C/T, MMS alone, 72 h, mean (±SD)
Description: (§1) PARP1 cell proliferation and drug interaction assays: RPMI 1640 and Dulbecco's modified Eagle medium (DMEM) with L-Glutamine, cell culture media were purchased from Cellgro (Mediatech, Inc.). Heat-inactivated Foundation Fetal bovine serum (FBS) was purchased from Gemini bio-products. The alkylating agent, methyl methanesulfonate (MMS) was purchased from Sigma. The PARPi veliparib (ABT-888, Abbott Laboratories, Abbott Park, Ill., USA) was used in the cell proliferation assays. The ABT-888 used in the drug interaction assays was purchased from Selleck Chemicals LLC (Huston, Tex., USA). MMS is an alkylating agent that results in DNA damage at the same bases as dacarbazine and temozolomide and has been used extensively as an alternative in the laboratory setting. ABT-888 was dissolved in dimethyl sulfoxide (DMSO) to a stock solution of 10 mM. A 10 μM working solution was then prepared in PBS for subsequent serial dilutions.
(§2) The cytotoxic effect of the PARP inhibitor veliparib (ABT-888) and the alkylating agent, MMS was assessed using the MTT colorimetric dye reduction assay, according to the manufacturer's instructions (TACS® MTT Cell Proliferation Assay (MTT-CPA) from Trevigen, Inc.). MTT assay was used for each cell line to determine the half-maximal (50%) inhibitory concentration (IC50) values of MMS alone or in combination with ABT-888. Briefly, cells were seeded in triplicates in 96 wells at appropriate cell density (optimized for each individual cell line to have exponentially growing cells during the course of the assay), in their regular culture medium (DMEM with L-Glutamine from Cellgro (Mediatech, Inc.)). After 24 h, the medium was aspirated and the cells were incubated with increasing concentrations of MMS alone (0 to 1 mM) or in the presence of a fixed concentration (10 nM final) of ABT-888 (six replicates for each combination treatment) for 72 h at 37° C. Then, 10 μl of MTT Reagent was added to each well and the plates were incubated for another 4 h at 37° C. in the dark. In each well, 100 μl of Detergent Reagent was then added and incubated at 37° C. until complete solubilization of formazan crystals.
(§3) In single drug treatment experiments (MMS alone), drug-free controls containing 0.5% DMSO were included. In drug combination experiments with increasing concentrations of MMS, the samples with PARPi alone (fixed concentration of 10 nM of ABT-888), were used as controls. All control values were normalized to 100%. Cell viability was measured by reading the absorbance at 570 nm using a Tecan (Safire 2) microplate reader. Reading was converted to the percentage of the controls. The values obtained for each of the triplicates were averaged, and IC50 values were defined as the concentrations of drug(s) that inhibited growth by 50% relative to controls. The data from the MTT assay were expressed as mean IC50±standard deviation (SD). The IC50 of ABT-888, MMS and linear regression analysis were computed by […] Prism 5.0 program ([…] Software, Inc., San Diego, Calif.). For each cell line, the P-value was calculated using the Student t-test (two-tailed, paired) to compare the IC50 means of each treatment group (MMS alone or MMS+ABT-888).

[2] = system: A375; assay: as above; type: cell-based; conditions: Homo sapiens, A-375, A375 melanoma, PARP1/SNP T/T, MMS alone, 72 h, mean (±SD)
Description: as §1, §2, §3

[3] = system: A549; assay: as above; type: cell-based; conditions: Homo sapiens, A549 lung, PARP1/SNP C/T, MMS alone, 72 h, mean (±SD)
Description: as §1, §2, §3

[4] = system: FEMX; assay: as above; type: cell-based; conditions: Homo sapiens, Fem-X, FEMX melanoma, PARP1/SNP T/T, MMS alone, 72 h, mean (±SD)
Description: as §1, §2, §3

[5] = system: H-522; assay: as above; type: cell-based; conditions: Homo sapiens, NCI-H522, H-522 lung, PARP1/SNP T/T, MMS alone, 72 h, mean (±SD)
Description: as §1, §2, §3

[6] = system: M14; assay: as above; type: cell-based; conditions: Homo sapiens, M14 melanoma, PARP1/SNP C/T, MMS alone, 72 h, mean (±SD)
Description: as §1, §2, §3

[7] = system: MCF-7; assay: as above; type: cell-based; conditions: Homo sapiens, MCF7, MCF-7 breast, PARP1/SNP C/T, MMS alone, 72 h, mean (±SD)
Description: as §1, §2, §3

[8] = system: MDA-MB-231; assay: as above; type: cell-based; conditions: Homo sapiens, MDA-MB-231 breast, PARP1/SNP C/T, MMS alone, 72 h, mean (±SD)
Description: as §1, §2, §3

[9] = system: SW620; assay: as above; type: cell-based; conditions: Homo sapiens, SW-620, SW620 colon, PARP1/SNP T/T, MMS alone, 72 h, mean (±SD)
Description: as §1, §2, §3

[10] = system: NCI-60 cell lines; assay: NCI-60 […] IC50 values, cell lines with rs1805407 vs wild type; type: cell-based; conditions: NCI60 IC50 values, C/T or C/C (n=23) vs T/T (n=37)
Description: Given that TMZ damages the DNA and PARP1 has a critical role in DNA repair, one plausible hypothesis is that rs1805407 is either associated with increased PARP1 activity or decreased PARP1 trapping after treatment with alkylating agents (Murai J, et al. (2012) Cancer Res 72(21):5588-5599). The role of rs1805407 in cell response to various drugs was investigated. The NCI-60 […]™ database (Reinhold W C, et al. (2012) Cancer Res 72(14):3499-3511) contains the response of 60 cell lines to ˜50,000 compounds. It was evaluated whether drugs affect differentially the cell lines that have at least one copy of rs1805407 (C/T or C/C) vs wild type (T/T).
SNP imputation on TCGA samples and NCI-60 cell lines: NCI-60 data were obtained from Cell Miner in June 2013 (discover.nci_nih.gov/cellminer/). For those cell lines or TCGA samples for which the identity of SNP rs1805407 was not available we used imputation to infer its identity. Using SNAP (17) we found 51 SNPs to be in perfect linkage disequilibrium (LD) with rs1805407 (R^2=1). Of these, 9 variants were covered by the Affymetrix SNP Array 6.0 used by the TCGA. To determine the rs1805407 genotype in TCGA samples birdseed calls (Korn J M, et al. (2008) Nature genetics 40(10):1253-126) from Affymetrix Genome-Wide Human SNP Array 6.0 were used. Only samples with a birdseed confidence less than 0.1 or where all 9 SNPs in perfect LD agreed with the birdseed call were used.

[11] = system: metastatic melanoma patients; assay: Response to TMZ treatment in metastatic melanoma patients by rs1805407 genotype; type: in vivo, human; conditions: all 21 patients that had the SNP rs1805407 (C/T or C/C)
Description: The melanoma dataset consisted of whole genome gene expression, microRNA expression, DNA methylation, and data from the selected SNP panel. MGM-Learn was used to learn a network over the top 1000 features most correlated (pairwise) with “response” to treatment clinical variable, a binary variable indicating response/no response to temozolomide (TMZ) treatment dichotomized at presence of a response or stability of disease at 4 months of therapy. The 1,000 most correlated features in the input dataset included 557 mRNA expression probes, 425 methylation probes, 14 miRNA probes and 4 SNPs. […] The largest interconnected output network included 20 features connected to the response variable in our initial (undirected) learned network (FIG. 2A). It was emphasized that these features were connected to the response variable not only because they have high pairwise correlation with it (FIG. 2B), but also because they are dependent on response even when conditioned on all other variables included in the input. In this sense, they represent direct (causal) interactions and not simple biomarkers. From the 20 features initially connected to response, 15 were left connected after causal filtering (FIG. 2A, black lines). […]
Melanoma study design: Using a retrospective cohort study design, 69 patients with metastatic melanoma who were treated with alkylator-based chemotherapy were evaluated. […]

For `COS(C)(=O)=O` [MMS, methyl methanesulfonate], the pIC50 [1] was 3.72, the pIC50 [2] was 3.51 and the pIC50 [3] was 3.59. The pIC50 [4] was 3.78, the pIC50 [5] was 3.24 and the pIC50 [6] was 3.28. For the same molecule, the pIC50 [7] was 3.71, the pIC50 [8] was 3.59 and the pIC50 [9] was 3.52.

In the case of `O=C(c1cc(Cc2n[nH]c(=O)c3ccccc23)ccc1F)N1CCN(C(=O)C2CC2)CC1` [olaparib], the “resistance or sensitivity of cell lines with at least one allele of rs1805407 vs wild type” value (“resistance or sensitivity … vs wild type” below) [10] was “slight increase in sensitivity”.

With `CC1=C(CO)C2=C(C)C3(CC3)[C@@](C)(O)C(=O)C2=C1` [Irofulven, Hydroxymethylacylfulvene] the “resistance or sensitivity … vs wild type” value [10] was “Increased sensitivity”.

In the case of `O=P1(N(CCCl)CCCl)NCCCO1` (centres unmarked) [Cyclophosphamide], the “resistance or sensitivity … vs wild type” value [10] was “Increased resistance”.

With `O=NN(CCCl)C(=O)NCCCl` [Carmustine] the “resistance or sensitivity … vs wild type” value [10] was “Increased resistance”.

For `Cn1nnc2c(C(N)=O)ncn2c1=O` [TMZ, temozolomide], the “response to TMZ treatment” value [11] was “no response”.
